In patent US7138491B2, “Carboline-3-carboxylic acid modified related sequences of Ala-Arg-Pro-Ala-Lys, their synthesis and use as thromobolytic agent” (Guangzhou Bai Yun Shan Pharmaceutical Co., Ltd., priority 2003, dated 2006):
Ends that are not written are not given here.

What was measured:
[1] = test system: fibrin plate; assay: In vitro fibrinolytic lysis on fibrin plate (fibrinogen-agarose); assay type: biochemical, rabbit; conditions: dosage per well differs per compound (0.8-2.2 μg; UK 5 IU); n = 6; NS control 21.01 ± 9.26
Procedure: The plates were prepared by mixing equal volumes of 0.3% rabbit fibrinogen and 0.95% agarose solutions, both dissolved in 50 mM of barbital buffer (pH 7.8, contained 1.66 mM of CaCl2, 0.68 mM of MgCl2 and 93.96 mM of NaCl)^[6]. The fibrinogen-agarose mixture was coagulated with […] thrombin (100 IU: ml) in the plastic dishes (its diameter is 90 mm and the depth of the fibrin plate is 1 mm). After 30 min at 4° C. an adequate number of wells, 5 mm in diameter, were perforated. To determine fibrinolytic activity […] aliquots of the tested pseudopeptides were added to each well, the plate was incubated, and areas of lysis were quantified as described for the regular fibrin plates.

[2] = test system: rabbit euglobulin fraction; assay: In vitro euglobulin clot lysis time (ECLT); assay type: biochemical; conditions: dosage differs per compound (1.3-6.7 μg; UK 5 IU); 96 well microtiter plate; n = 6; NS control 200.01 ± 15.26
Procedure: The rabbit euglobulin fraction was prepared according to the literature^[6]. Plasma diluted […] in distilled water was precipitated at pH 5.7 with acetic acid (0.25%). After 30 min at 4° C. the suspension was centrifuged at 2000 g for 15 min and the precipitate was resuspended to the initial plasma volume with 50 mM barbital buffer (pH 7.8, contained 1.66 mM of CaCl2, 0.68 mM of MgCl2 and 93.96 mM of NaCl). Euglobulin clot lysis time (ECLT) of the tested pseudopeptide was measured using a 96 well microtiter plate^[7] and the data are listed in Table 2.

[3] = test system: thrombus; assay: In vivo thrombolytic activity, thrombus on steel helix in extracorporeal circulation; conditions: male Wistar rats; injected; dose differs per compound (3.1-8.2 mg/kg; UK 20000 IU); blood circulated 90 min; n = 10; NS control 12.31 ± 2.57
Procedure: Male Wistar rats weighing 200–300 g (purchased from Animal Center of Peking University) were anesthetized with pentobarbital sodium (80.0 mg/kg, ip). The right carotid artery and left vein jugular of the animals were separated. To the glass tube filled with artery blood (1.0 ml) from the right carotid artery of the animal a stainless steel filament helix (15 circles; L, 15 mm; D, 1.0 mm) was put immediately. After 15 minutes the helix with thrombus was carefully taken out and weighted exactly, which was put into the middle polyethylene tube. The polyethylene tube was full with heparin sodium (50 IU/ml of NS) and one end was inserted into the left jugular vein. Heparin sodium was injected via the other end of the polyethylene tube as the anticoagulant, following which the tested pseudopeptide was injected. The blood was circulated through the polyethylene tube for 90 min, after which the helix was taken out and weighted accurately.

Substance | Effect of the pseudopeptides on fibrin plate, areas of lysis, x ± SD [1] [mm^2] | Euglobulin clot lysis time, x ± SD [2] [min] | The reduction of thrombolytic mass, x ± SD [3] [mg]
3S-1,2,3,4-tetrahydro-β-carboline-3-carboxyl-Asn-Arg-Pro-Ala-Lys-OH (NRPAK-OH; not fully specified (N-terminus); printed as 3S-1,2,3,4-tetrahydro-β-carboline-3-carboxyl-Asn-Arg-Pro-Ala-Lys-OH) [compound 15] | 23.21 ± 9.74 | 213.12 ± 29.47 | 13.12 ± 2.47
3S-1,2,3,4-tetrahydro-β-carboline-3-carboxyl-Ala-Arg-Pro-Ala-Lys-OH (ARPAK-OH; not fully specified (N-terminus); printed as 3S-1,2,3,4-tetrahydro-β-carboline-3-carboxyl-Ala-Arg-Pro-Ala-Lys-OH) [compound 11] | 24.10 ± 10.16 | 204.01 ± 32.61 | 14.01 ± 2.61
3S-(2-Ala-Arg-Pro-Ala)-1,2,3,4-tetrahydro-β-carboline-3-carboxylic acid (ARPA; not fully specified (C-terminus)) [compound 27] | 23.32 ± 9.99 | 203.89 ± 29.67 | 13.89 ± 2.67
3S-1,2,3,4-tetrahydro-β-carboline-3-carboxyl-Arg-Arg-Pro-Ala-Lys-OH (RRPAK-OH; not fully specified (N-terminus); printed as 3S-1,2,3,4-tetrahydro-β-carboline-3-carboxyl-Arg-Arg-Pro-Ala-Lys-OH) [compound 26] | 24.00 ± 12.01 | 214.80 ± 32.96 | 14.80 ± 2.96
3S-1,2,3,4-tetrahydro-β-carboline-3-carboxyl-Gln-Arg-Pro-Ala-Lys-OH (QRPAK-OH; not fully specified (N-terminus); printed as 3S-1,2,3,4-tetrahydro-β-carboline-3-carboxyl-Gln-Arg-Pro-Ala-Lys-OH) [compound 14] | 22.89 ± 10.02 | 212.98 ± 28.42 | 12.98 ± 2.42
3S-1,2,3,4-tetrahydro-β-carboline-3-carboxyl-Gly-Arg-Pro-Ala-Lys-OH (GRPAK-OH; not fully specified (N-terminus); printed as 3S-1,2,3,4-tetrahydro-β-carboline-3-carboxyl-Gly-Arg-Pro-Ala-Lys-OH) [compound 12] | 23.53 ± 9.74 | 213.35 ± 29.47 | 13.35 ± 2.47
3S-1,2,3,4-tetrahydro-β-carboline-3-carboxyl-Pro-Ala-Lys-OH [compound 20] | 19.41 ± 11.71 | 209.31 ± 31.57 | 13.31 ± 0.0257
H-Ala-Arg-Pro-Ala-OH (H-ARPA-OH) [compound 10] | 31.01 ± 9.26 | 214.01 ± 28.26 | 14.01 ± 2.26
